Legend:
potassium arsenate = compound: O=[As]([O-])(O)O.[K+] [potassium arsenate]; assay: thermal stability z-score vs DMSO; higher = more thermally stabilized by treatment; conditions: HeLa; arsenate concentration 1 mM
Protocol: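 Cellular thermal proteome profiling in HeLa cells treated with 1 mM arsenate for 1 h (DMSO pretreatment), heated to ten temperatures (37-66.3 °C). Soluble protein was quantified by TMT mass spectrometry relative to DMSO controls; the thermal stability score was transformed to a z-score; mean of n = 3 experiments.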

lipoamide = compound: NC(=O)CCCCC1CCSS1 [lipoamide]; assay: as above; conditions: HeLa, lipoamide concentration 100 µM
Protocol: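 Cellular thermal proteome profiling in HeLa cells. Cells were treated with 100 µM lipoamide for 1 h, with or without 1 mM arsenate for a further 1 h, then heated to ten temperatures (37-66.3 °C), and soluble protein was quantified by TMT mass spectrometry relative to 0.1% DMSO controls. The thermal stability score (sum of log2 fold changes minus the abundance score) was transformed to a z-score; mean of n = 3 experiments.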

[1] = arsenate co-treatment: 1 mM arsenate 1 h
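Note: each temperature applied for 3 min, abundance score taken as mean log2 fold change at the two lowest temperatures, z-score obtained by mean subtraction and division by SD.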

Sequence of UniProt Q96KB5 (Q96KB5 whole entry): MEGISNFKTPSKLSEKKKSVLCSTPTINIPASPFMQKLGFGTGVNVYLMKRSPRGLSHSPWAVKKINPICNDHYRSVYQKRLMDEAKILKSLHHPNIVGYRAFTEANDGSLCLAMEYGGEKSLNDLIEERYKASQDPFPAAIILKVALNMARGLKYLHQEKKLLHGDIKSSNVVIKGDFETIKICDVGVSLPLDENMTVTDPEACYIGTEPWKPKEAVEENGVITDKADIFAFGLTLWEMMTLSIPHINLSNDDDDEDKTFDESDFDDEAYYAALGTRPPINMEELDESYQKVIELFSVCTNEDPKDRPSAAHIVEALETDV
Sequence of UniProt Q9H999 (Q9H999 whole entry, looked up): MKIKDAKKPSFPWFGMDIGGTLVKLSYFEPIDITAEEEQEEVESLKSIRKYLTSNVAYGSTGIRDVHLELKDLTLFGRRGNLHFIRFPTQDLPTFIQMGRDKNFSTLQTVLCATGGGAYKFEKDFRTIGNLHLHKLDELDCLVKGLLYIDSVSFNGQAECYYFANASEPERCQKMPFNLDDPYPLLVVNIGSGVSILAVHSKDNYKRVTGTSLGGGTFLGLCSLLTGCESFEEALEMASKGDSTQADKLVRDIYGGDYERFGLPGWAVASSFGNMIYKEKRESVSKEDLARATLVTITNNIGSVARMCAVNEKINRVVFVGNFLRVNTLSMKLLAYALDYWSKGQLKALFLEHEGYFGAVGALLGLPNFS
Sequence of UniProt P68402 (P68402 whole entry): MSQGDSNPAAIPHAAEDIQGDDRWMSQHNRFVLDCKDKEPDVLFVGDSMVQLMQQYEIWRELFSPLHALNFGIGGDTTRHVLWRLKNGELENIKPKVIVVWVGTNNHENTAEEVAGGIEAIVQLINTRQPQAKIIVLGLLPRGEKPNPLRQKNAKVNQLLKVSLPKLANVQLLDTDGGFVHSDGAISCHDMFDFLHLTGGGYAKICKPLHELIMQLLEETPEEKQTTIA
Sequence of UniProt P43034 (P43034 whole entry): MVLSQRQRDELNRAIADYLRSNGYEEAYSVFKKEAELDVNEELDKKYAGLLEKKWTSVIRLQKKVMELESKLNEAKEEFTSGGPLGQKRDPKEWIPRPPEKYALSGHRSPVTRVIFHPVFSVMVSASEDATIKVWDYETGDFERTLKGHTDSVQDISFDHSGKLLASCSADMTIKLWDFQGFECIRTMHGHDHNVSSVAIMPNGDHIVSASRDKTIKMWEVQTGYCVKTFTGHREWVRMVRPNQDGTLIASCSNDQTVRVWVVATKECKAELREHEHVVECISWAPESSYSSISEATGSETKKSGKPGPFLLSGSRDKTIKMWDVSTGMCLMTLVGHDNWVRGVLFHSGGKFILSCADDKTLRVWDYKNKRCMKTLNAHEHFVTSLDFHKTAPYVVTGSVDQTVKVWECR
Sequence of UniProt Q99497 (Q99497 whole entry): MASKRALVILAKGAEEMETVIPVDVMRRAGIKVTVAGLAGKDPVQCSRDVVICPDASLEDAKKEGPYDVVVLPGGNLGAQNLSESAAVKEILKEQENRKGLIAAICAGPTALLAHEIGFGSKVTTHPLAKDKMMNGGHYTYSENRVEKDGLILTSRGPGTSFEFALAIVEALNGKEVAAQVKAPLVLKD
Sequence of UniProt Q8NDF8 (Q8NDF8 whole entry): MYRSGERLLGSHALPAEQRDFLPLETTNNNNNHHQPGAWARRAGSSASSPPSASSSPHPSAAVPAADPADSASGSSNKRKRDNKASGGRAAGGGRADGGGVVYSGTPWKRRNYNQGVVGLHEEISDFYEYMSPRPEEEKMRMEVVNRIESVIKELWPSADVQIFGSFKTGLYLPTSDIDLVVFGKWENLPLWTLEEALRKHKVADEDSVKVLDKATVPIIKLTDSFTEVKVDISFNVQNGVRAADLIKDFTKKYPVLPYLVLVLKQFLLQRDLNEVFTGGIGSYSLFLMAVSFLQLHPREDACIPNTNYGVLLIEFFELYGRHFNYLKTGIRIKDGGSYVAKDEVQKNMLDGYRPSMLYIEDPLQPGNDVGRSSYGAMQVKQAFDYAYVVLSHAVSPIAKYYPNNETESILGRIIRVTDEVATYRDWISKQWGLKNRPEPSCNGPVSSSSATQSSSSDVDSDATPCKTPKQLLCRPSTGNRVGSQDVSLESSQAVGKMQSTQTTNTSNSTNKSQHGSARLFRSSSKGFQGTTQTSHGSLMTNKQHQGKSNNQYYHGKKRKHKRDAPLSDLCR
Sequence of UniProt P05165 (P05165 whole entry): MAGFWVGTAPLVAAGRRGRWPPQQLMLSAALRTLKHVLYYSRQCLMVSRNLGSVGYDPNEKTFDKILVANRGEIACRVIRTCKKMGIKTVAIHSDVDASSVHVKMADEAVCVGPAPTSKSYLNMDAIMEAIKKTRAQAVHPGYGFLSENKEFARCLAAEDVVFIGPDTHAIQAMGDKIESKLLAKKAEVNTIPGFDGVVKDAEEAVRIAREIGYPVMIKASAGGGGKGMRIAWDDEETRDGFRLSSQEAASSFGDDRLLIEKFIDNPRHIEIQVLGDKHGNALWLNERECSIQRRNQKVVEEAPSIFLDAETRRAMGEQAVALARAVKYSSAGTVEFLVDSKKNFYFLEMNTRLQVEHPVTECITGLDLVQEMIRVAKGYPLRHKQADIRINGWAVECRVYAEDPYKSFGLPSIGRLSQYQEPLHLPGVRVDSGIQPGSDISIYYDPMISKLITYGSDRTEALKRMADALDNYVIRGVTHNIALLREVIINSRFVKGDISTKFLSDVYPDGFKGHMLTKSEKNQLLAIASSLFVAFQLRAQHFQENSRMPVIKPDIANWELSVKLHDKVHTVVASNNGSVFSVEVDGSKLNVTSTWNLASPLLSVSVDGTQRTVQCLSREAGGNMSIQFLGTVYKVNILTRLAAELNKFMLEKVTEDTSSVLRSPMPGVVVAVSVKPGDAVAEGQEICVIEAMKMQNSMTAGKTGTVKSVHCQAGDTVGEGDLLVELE
Sequence of UniProt Q8TEW0 (Q8TEW0 whole entry): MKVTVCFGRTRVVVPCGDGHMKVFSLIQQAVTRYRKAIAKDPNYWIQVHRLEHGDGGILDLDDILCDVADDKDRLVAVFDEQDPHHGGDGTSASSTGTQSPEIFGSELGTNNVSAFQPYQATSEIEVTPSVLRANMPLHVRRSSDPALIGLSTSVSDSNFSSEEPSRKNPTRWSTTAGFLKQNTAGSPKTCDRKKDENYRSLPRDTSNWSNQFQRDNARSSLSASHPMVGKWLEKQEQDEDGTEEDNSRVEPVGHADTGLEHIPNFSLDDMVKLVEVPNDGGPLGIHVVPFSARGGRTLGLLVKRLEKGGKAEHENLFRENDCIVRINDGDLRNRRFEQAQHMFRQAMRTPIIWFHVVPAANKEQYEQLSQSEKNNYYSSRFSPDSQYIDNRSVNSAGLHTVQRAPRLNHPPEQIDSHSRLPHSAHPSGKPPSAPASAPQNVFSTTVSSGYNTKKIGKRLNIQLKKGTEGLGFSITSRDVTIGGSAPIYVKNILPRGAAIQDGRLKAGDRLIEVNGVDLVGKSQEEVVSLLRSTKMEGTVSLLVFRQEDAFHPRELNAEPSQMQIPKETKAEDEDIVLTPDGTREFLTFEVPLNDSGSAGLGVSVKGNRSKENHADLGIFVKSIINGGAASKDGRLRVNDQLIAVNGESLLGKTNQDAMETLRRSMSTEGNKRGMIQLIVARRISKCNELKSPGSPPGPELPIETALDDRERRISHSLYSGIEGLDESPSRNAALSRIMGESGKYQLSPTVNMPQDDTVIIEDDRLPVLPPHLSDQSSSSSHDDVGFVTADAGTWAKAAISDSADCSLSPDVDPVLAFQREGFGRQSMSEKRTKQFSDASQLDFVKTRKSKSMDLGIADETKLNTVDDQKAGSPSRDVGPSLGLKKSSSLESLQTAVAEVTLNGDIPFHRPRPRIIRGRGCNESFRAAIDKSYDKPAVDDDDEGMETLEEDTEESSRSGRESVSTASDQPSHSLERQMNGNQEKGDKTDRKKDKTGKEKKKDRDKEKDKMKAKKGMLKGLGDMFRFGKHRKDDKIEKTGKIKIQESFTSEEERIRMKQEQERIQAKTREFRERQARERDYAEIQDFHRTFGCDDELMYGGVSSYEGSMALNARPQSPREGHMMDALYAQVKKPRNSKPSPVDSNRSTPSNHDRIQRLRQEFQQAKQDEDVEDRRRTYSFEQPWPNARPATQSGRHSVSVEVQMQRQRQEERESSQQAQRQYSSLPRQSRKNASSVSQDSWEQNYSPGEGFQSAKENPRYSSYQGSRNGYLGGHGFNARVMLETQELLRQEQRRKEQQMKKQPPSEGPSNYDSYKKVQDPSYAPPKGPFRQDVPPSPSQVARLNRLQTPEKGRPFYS
Sequence of UniProt Q9H300 (Q9H300 whole entry): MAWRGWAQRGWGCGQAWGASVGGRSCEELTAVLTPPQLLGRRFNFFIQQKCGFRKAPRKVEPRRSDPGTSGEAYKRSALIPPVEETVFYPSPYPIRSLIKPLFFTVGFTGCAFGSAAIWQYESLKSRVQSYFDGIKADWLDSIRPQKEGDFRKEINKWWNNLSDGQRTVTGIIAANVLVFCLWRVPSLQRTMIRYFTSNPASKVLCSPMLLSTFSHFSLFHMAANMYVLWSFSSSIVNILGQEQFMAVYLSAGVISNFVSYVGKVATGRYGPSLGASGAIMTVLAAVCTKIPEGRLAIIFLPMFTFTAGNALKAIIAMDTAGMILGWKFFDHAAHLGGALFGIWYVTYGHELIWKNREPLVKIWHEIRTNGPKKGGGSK
Sequence of UniProt Q9BTK6 (Q9BTK6 whole entry): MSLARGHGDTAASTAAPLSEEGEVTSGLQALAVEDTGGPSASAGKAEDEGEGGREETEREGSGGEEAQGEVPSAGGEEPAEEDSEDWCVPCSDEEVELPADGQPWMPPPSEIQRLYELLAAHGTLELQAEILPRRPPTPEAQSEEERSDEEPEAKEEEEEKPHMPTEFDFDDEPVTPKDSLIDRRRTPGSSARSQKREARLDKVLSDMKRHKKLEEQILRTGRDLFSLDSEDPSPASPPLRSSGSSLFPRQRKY
Sequence of UniProt O75459 (O75459 whole entry): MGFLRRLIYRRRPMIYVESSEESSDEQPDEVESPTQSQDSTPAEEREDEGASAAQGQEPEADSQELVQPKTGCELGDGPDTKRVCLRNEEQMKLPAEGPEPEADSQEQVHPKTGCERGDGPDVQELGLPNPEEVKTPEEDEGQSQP

Target	thermal stability z-score (potassium arsenate)	thermal stability z-score (lipoamide; [1])	thermal stability z-score (lipoamide; arsenate co-treatment: none)
P3H2 (UniProt Q8IVL5)	1.11	-4.71	-4.05
P3H4 (UniProt Q92791)	0.936	-4.72	-3.94
P4HA1 (UniProt P13674)	1.27	-4.31	-3.57
P4HA2 (UniProt O15460)	0.573	-3.73	-3.49
P4HB (UniProt P07237)	0.47	-0.224	0.393
P4HTM (UniProt Q9NXG6)	-0.0889	0.0884	-0.262
P1394_HsINTS1|INTS1	0.145	-0.0499	-0.0292
PA2G4 (UniProt Q9UQ80)	1.4	0.127	0.183
PAAF1 (UniProt Q9BRP4)	-0.478	-0.442	-0.906
PABPC1 (UniProt P11940)	-0.758	0.469	0.549
PABPC4 (UniProt Q13310)	-0.478	0.322	0.911
PACS1 (UniProt Q6VY07)	0.404	-0.0876	0.134
PACSIN2 (UniProt Q9UNF0)	0.638	0.246	0.134
PACSIN3 (UniProt Q9UKS6)	-0.842	0.00517	0.149
PAF1 (UniProt Q8N7H5)	-0.714	0.0739	-0.631
PAFAH1B1 (UniProt P43034)	-0.241	0.258	-0.161
PAFAH1B2 (UniProt P68402)	-0.469	0.526	0.289
PAFAH1B3 (UniProt Q15102)	0.275	0.574	0.345
PAFAH2 (UniProt Q99487)	-0.363	0.543	-0.499
PAGE1 (UniProt O75459)	-0.636	0.147	0.51
PAGR1 (UniProt Q9BTK6)	-0.194	0.263	-0.446
PAICS (UniProt P22234)	-0.0525	0.653	0.549
PAIP1 (UniProt Q9H074)	0.0886	0.875	0.836
PAIP2 (UniProt Q9BPZ3)	-1.06	0.427	0.233

Target	thermal stability z-score (potassium arsenate)	thermal stability z-score (lipoamide; [1])	thermal stability z-score (lipoamide; arsenate co-treatment: none)
PAK1 (UniProt Q13153)	0.771	0.413	0.286
PAK1IP1 (UniProt Q9NWT1)	-1.53	0.104	-0.651
PAK2 (UniProt Q13177)	-0.165	-0.044	0.283
PAK4 (UniProt O96013)	-0.347	-0.224	-0.347
PALLD (UniProt Q8WX93)	-0.249	-0.57	0.141
PALM (UniProt O75781)	-0.681	-0.195	-0.143
PALMD (UniProt Q9NP74)	1.81	1.1	0.987
PAM (UniProt P19021)	-1.17	-1.15	-1.32
PAN2 (UniProt Q504Q3)	-0.143	0.0953	-0.21
PAN3 (UniProt Q58A45)	-0.257	-0.038	0.0344
PANK2 (UniProt Q9BZ23)	0.53	0.583	0.588
PANK3 (UniProt Q9H999)	0.672	1.22	0.571
PANK4 (UniProt Q9NVE7)	0.112	-0.399	-0.303
PANX1 (UniProt Q96RD7)	0.123	0.67	0.0977
PAP1 (UniProt Q06141)	-0.156	-0.00124	-0.19
PAPD5 (UniProt Q8NDF8)	-0.0587	0.175	-0.0726
PAPOLA (UniProt P51003)	-0.119	-0.22	-0.103
PAPOLG (UniProt Q9BWT3)	0.167	-0.086	0.083
PAPSS1 (UniProt O43252)	0.0908	-0.0513	-0.0832
PAPSS2 (UniProt O95340)	1.57	-0.146	-0.156
PARD3 (UniProt Q8TEW0)	-0.00597	0.02	0.0237
PARD6B (UniProt Q9BYG5)	-0.0258	0.233	-0.00454
PARG (UniProt Q86W56)	0.0362	-0.123	0.257
PARK7 (UniProt Q99497)	4.42	4.83	0.686

Target	thermal stability z-score (potassium arsenate)	thermal stability z-score (lipoamide; [1])	thermal stability z-score (lipoamide; arsenate co-treatment: none)
PARL (UniProt Q9H300)	0.57	-0.134	-0.733
PARN (UniProt O95453)	0.95	0.181	-0.273
PARP1 (UniProt P09874)	-2.03	-0.643	0.7
PARP2 (UniProt Q9UGN5)	-0.0979	0.0296	-0.0685
PARP4 (UniProt Q9UKK3)	0.742	0.157	-0.044
PARP9 (UniProt Q8IXQ6)	-0.0858	-0.239	-0.1
PARP12 (UniProt Q9H0J9)	-0.282	0.0419	-0.00139
PARS2 (UniProt Q7L3T8)	-0.314	-0.928	-0.492
PARVA (UniProt Q9NVD7)	1.14	0.468	0.672
PARVB (UniProt Q9HBI1)	-0.107	-0.459	0.319
PASK (UniProt Q96RG2)	-0.353	0.103	0.0323
PATL1 (UniProt Q86TB9)	-0.0875	-0.613	-0.623
PAWR (UniProt Q96IZ0)	0.349	0.873	0.657
PAXBP1 (UniProt Q9Y5B6)	0.0461	0.125	0.182
PAXIP1 (UniProt Q6ZW49)	0.00378	-0.0199	0.255
PBK (UniProt Q96KB5)	0.533	-0.583	-0.307
PBLD (UniProt P30039)	-0.578	-0.0252	-0.218
PBXIP1 (UniProt Q96AQ6)	-0.357	-3.02	-2.69
PC (UniProt P11498)	-0.574	-0.429	-0.205
PCBD1 (UniProt P61457)	0.213	0.499	0.492
PCBP1 (UniProt Q15365)	-1.31	-0.057	0.0883
PCBP2 (UniProt Q15366)	0.141	-0.426	-0.239
PCCA (UniProt P05165)	-0.314	0.202	0.198

From the supplement of paper PMC12463676, “Small-molecule dissolution of stress granules by redox modulation benefits ALS models” (Nature Chemical Biology, 2025)
